Test results reported in ChEMBL document CHEMBL5500406, “Discovery of Novel Proteolysis-Targeting Chimera Molecules as Degraders of Programmed Cell Death-Ligand 1 for Breast Cancer Therapy” (J Med Chem, 2024).
Active and inactive are the calls of the source. No cut-off for these calls is given here.

Target: Protein cereblon/Programmed cell death 1 ligand 1 (Mus musculus) (UniProt Q9EP73+Q8C7D2)
Assay: PROTAC activity at CRBN/PD-L1 in mouse 4T1 cells assessed as protein degradation at 1.25 to 20 uM incubated for 24 hrs by Western blot analysis
Format: cell-based
Details: dose 1.25-20 µM

Sequence of Protein cereblon/Programmed cell death 1 ligand 1 (Mus musculus) (Q8C7D2 whole entry partner): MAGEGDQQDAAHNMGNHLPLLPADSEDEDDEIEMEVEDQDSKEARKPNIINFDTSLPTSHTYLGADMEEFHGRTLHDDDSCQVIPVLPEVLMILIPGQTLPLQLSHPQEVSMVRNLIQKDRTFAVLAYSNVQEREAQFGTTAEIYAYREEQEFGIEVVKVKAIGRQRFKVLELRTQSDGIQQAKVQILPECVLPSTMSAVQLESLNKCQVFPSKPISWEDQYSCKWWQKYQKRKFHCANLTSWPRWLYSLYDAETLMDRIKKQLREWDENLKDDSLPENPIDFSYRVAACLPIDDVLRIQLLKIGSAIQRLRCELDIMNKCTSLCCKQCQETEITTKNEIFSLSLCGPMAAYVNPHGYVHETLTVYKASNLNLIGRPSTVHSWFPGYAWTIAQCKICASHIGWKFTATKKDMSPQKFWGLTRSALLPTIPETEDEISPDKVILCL
Sequence of Protein cereblon/Programmed cell death 1 ligand 1 (Mus musculus) (Q9EP73 19-290 limits assumed): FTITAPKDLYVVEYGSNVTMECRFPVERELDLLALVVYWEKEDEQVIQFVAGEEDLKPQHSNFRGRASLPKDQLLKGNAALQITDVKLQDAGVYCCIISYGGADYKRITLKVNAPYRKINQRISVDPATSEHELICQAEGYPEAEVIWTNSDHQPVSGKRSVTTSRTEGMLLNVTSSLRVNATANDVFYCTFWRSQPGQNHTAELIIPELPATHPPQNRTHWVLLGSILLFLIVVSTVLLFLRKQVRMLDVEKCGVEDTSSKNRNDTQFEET

COc1nc(OCc2cccc(-c3ccccc3)c2C)ccc1CNCCNC(=O)CCCCCCNC(=O)COc1ccc(C2CCC(=O)NC2=O)cc1 (stereo unspecified)
Activity: Active
